Columns and labels:
[1] = tested on: inflammatory cytokines/chemokines (Tnf, Il1b, Il6, Cxcl2, Cxcl5); experiment: qRT-PCR analysis for cytokines/chemokines in lung tissues of Mabc-R-infected mice; type: in vivo, mouse; details: WT mice, intranasal Mabc-R 1×10^7 CFU, 30 mg/kg, 10 dpi (FIG. 5C)
Procedure: (§1) Scale bar, 50 μm. (B to E) WT mice (n=5 each group) were left uninfected or infected intranasally with Mabc-R (1×10^7 CFU), prior to treatment with or without the compound represented by Chemical Formula 1 (30 mg/kg) and monitored at 10 days post-infection. […] The ratio of damaged mitochondria among total mitochondria was calculated quantitatively (scale bars, 200 nm). […] (*P<0.05, **P<0.01, ***P<0.001, n.s., not significant. One-way ANOVA (right) or non-parametric test (B, C, D right and E)). (Data represents three independent experiments (A left and D), and values represent means (±SEM) from three or four independent experiments performed in triplicate (A right, B, C, and E))
(§2) RNA extraction and qPCR were performed as described in Reference. Briefly, total RNA from BMDMs or lung tissues was isolated using the TRIzol reagent (Thermo Fisher Scientific). cDNA synthesis was performed using Superscript II reverse transcriptase (Invitrogen, 18064). qPCR was performed using cDNA, primers, and SYBR Green PCR Kits (Qiagen, 204074) using a Real-time PCR Cycler Rotor-Gene Q 2plex system (Qiagen GmbH, 9001620, Hilden, Germany). The samples were amplified for 50 cycles as follows: 95° C. for 5 seconds and 60° C. for 10 seconds. To analyze qPCR data, relative quantification was performed using the 2^ΔΔCt method using Gapdh as an internal control gene. Data was expressed as a relative fold change. […]

[2] = tested on: mitochondrial ROS; experiment: MitoSOX Red staining of mitochondrial ROS in Mabc-R-infected BMDMs; type: cell-based, mouse; details: WT BMDMs, Mabc-R MOI=5, 2 hours, 20 μM, MitoSOX Red (FIG. 5A)
Procedure: as §1
Mitochondrial ROS were measured as described previously in Reference. […] After 20 minutes, the cells were washed and measured using an immunofluorescence assay. […] The mean fluorescence intensity (MFI) level of mitochondrial ROS was calculated for each sample. Each experiment was performed in triplicate, and at least 200 cells per well were counted.
The mitochondrial ROS scavenger MIT-001 (previously, NecroX-7) removes mitochondrial ROS, calcium, and reactive nitrogen species (References [32 and 33]). […] The present inventors next determined whether inhibition of mitochondrial ROS generation enhanced antimicrobial effects in vivo. […]

[3] = tested on: mitochondria in alveolar cells of lung tissues; experiment: TEM analysis of damaged mitochondria in lung tissues of Mabc-R-infected mice; type: in vivo, mouse; details: Mabc-R-infected mice vs vehicle control mice, 30 mg/kg, 10 dpi, TEM (FIG. 5D)
Procedure: as §1
SIRT3 WT and KO mouse lung tissues were fixed with 2.5% glutaraldehyde in a 0.1 M cacodylate buffer (pH 7.2) containing 0.1% CaCl2). After 3 hours, the cells were post-fixed with 1% OsO4 in a 0.1 M sodium cacodylate buffer containing 0.1% CaCl2) for 2 hours. The tissues were rinsed with cold distilled water and slowly dehydrated using an ethanol series and propylene oxide at 4° C. The tissues were embedded in Embed-812 and cured at 60° C. for 30 hours. Ultrathin sections (70 nm) were cut with a diamond knife and an ULTRACUT UC7 ultramicrotome (Leica) and mounted on formvar-coated copper grids. Sections were stained with 4% uranyl acetate for 7 minutes and lead citrate for 7 minutes. […]

[4] = tested on: Sirt3 mRNA; experiment: qRT-PCR analysis for Sirt3 mRNA expression in lungs of Mabc-R-infected mice; type: in vivo, mouse; details: 30 mg/kg, 10 dpi (FIG. 5E)
Procedure: as §1, §2

[5] = tested on: Mabc-R; experiment: Pulmonary CFU assay in mice infected intranasally with Mabc-R; type: in vivo, mouse; details: WT mice, intranasal Mabc-R 1×10^7 CFU, 30 mg/kg at 1, 3, 5, 7 and 9 dpi, sacrificed at 10 dpi (FIG. 5B)
[6] = tested on: TNF; experiment: TNF secretion in lung tissues of Mabc-R-infected mice (ELISA); type: in vivo, mouse; details: Mabc-R-infected mice treated with MIT-001
Procedure: The concentration of TNF in lung tissues was measured using a commercially available ELISA kit (BD Biosciences, 558534, San Jose, CA, USA). Experiments were performed according to the protocol provided by the manufacturer.
We next examined the in vivo effects of MIT-001 on pathological inflammatory responses during Mabc-R infection.

[7] = tested on: SIRT3; experiment: qRT-PCR of Tnf, Il6 and Cxcl2 in Mabc-R-infected PMs with 3-TYP; type: cell-based, mouse; details: 3-TYP 50 μM pretreatment, Mabc-R MOI=3, 3 hours (FIG. 3C)
Procedure: (§3) BMDMs of B and PMs of C were prepared from SIRT3 WT and KO mice, and were infected with Mabc-R (MOI=3) in the presence or absence of 3-TYP (50 μM) for 3 hours. Quantitative real-time PCR analysis for Tnf, Il6, and Cxcl2 was performed. […] (Scale bar, 50 μm. *P<0.05, **P<0.01, ***P<0.001. UI, uninfected. One-way ANOVA (A to D). Data is representative of three independent experiments (D left), and values represent means (±SEM) from three or four independent experiments performed in triplicate (A to C, D right))
(§4) Primary mouse bone marrow-derived macrophages (BMDMs) were isolated and cultured as previously described. BMDMs were isolated and differentiated after culture for 4 to 5 days in medium containing 25 ng/mL macrophage colony-stimulating factor (R&D Systems, Minneapolis, MIN, USA). Peritoneal macrophages (PMs) were isolated 2 to 3 days after injection with 1 mL of PBS supplemented with 3% thioglycollate (Sigma-Aldrich, St. Louis, MO, USA). Prior to isolation, PMs in the mouse abdominal cavity were collected with pre-chilled PBS supplemented with 10% FBS. […]
(§5) RNA extraction and qPCR were performed as described in Reference. […] To analyze qPCR data, relative quantification was performed using the 2^ΔΔCt method using Gapdh as an internal control gene. Data was expressed as a relative fold change. […]

[8] = tested on: SIRT3; experiment: qRT-PCR of Tnf, Il6 and Cxcl2 in Mabc-R-infected BMDMs with 3-TYP; type: cell-based, mouse; details: 3-TYP 50 μM pretreatment, Mabc-R MOI=3, 3 hours (FIG. 3B)
Procedure: as §3, §4, §5

Structure (SMILES)	mRNA expression of inflammatory cytokines/chemokines including Tnf, Il1b, Il6, Cxcl2 and Cxcl5 in lung tissues [1]	generation of mitochondrial ROS in response to Mabc-R infection [2]	damaged mitochondria with disrupted cristae in alveolar cells of lung tissues [3]	Sirt3 mRNA levels in mouse lungs [4]	in vivo bacterial loads in the lungs (pulmonary CFU) [5]	TNF secretion in lung tissues [6]	mRNA expression of proinflammatory cytokines (Tnf, Il6, Cxcl2) after infection with Mabc-R ([7]; SIRT3 KO PMs)	mRNA expression of Tnf, Il6, and Cxcl2 in response to Mabc-R ([7]; SIRT3 WT PMs)	mRNA expression of proinflammatory cytokines (Tnf, Il6, Cxcl2) after infection with Mabc-R ([8]; SIRT3 KO BMDMs)	mRNA expression of Tnf, Il6, and Cxcl2 in response to Mabc-R ([8]; SIRT3 WT BMDMs)
O=S1(=O)CCN(Cc2cc(NC3CCOCC3)c3[nH]c(-c4ccccc4)cc3c2)CC1 [MIT-001, 5-[(1,1-dioxido-4-thiomorpholinyl)methyl]-2-phenyl-N-(tetrahydro-2H-pyran-4-yl)-1H-indol-7-amine]	remarkably ameliorated	remarkably suppressed	considerably fewer damaged mitochondria	significantly recovered	significantly inhibited	significantly downregulated				
c1cncc(-c2cn[nH]n2)c1 [3-TYP]							no significant effect	significantly increased	no significant effect	significantly increased

Source: US20240009202A1, “MITOCHONDRIA-TARGETED ANTIOXIDANT AS AGENT FOR TREATING PATHOLOGIC INFLAMMATION CAUSED BY MABC-R INFECTION” (MITOIMMUNE THERAPEUTICS INC., priority 2020, published 2024)
